Assay results published in patent US7189729B2, “Methods and compositions as protein kinase inhibitors” (IRM LLC, priority 2003, dated 2007).
pIC50: −log10 of the molar value.

Target: b-Raf (Homo sapiens, UniProt P15056)
Experiment: b-Raf inhibition assay (IκBα substrate, 384-well plate)
Type: biochemical
Protocol: Compounds of the invention are tested for their ability to inhibit the activity of b-Raf. The assay is carried out in 384-well MaxiSorp plates (NUNC) with black walls and clear bottom. The substrate, IκBα is diluted in DPBS (1:750) and 15 μl is added to each well. The plates are incubated at 4° C. overnight and washed 3 times with TBST (25 mM Tris, pH 8.0, 150 mM NaCl and 0.05% Tween-20) using the EMBLA plate washer. Plates are blocked by Superblock (15 μl/well) for 3 hours at room temperature, washed 3 times with TBST and pat-dried. Assay buffer containing 20 μM ATP (10 μl) is added to each well followed by 100 nl or 500 nl of compound. B-Raf is diluted in the assay buffer (1 μl into 25 μl) and 10 μl of diluted b-Raf is added to each well ([…]). The plates are incubated at room temperature for 2.5 hours. The kinase reaction is stopped by washing the plates 6 times with TBST. Phosph-IκBα (Ser32/36) antibody is diluted in Superblock (1:10,000) and 15 μl is added to each well. The plates are incubated at 4° C. overnight and washed 6 times with TBST. AP-conjugated goat-anti-mouse IgG is diluted in Superblock (1:1,500) and 15 μl is added to each well. Plates are incubated at room temperature for 1 hour and washed 6 times with TBST. […] Plates are read on Acquest or Analyst GT using a Fluorescence Intensity Nanxin BBT anion (505 dichroic mirror).

b-Raf, sequence (P15056 whole entry): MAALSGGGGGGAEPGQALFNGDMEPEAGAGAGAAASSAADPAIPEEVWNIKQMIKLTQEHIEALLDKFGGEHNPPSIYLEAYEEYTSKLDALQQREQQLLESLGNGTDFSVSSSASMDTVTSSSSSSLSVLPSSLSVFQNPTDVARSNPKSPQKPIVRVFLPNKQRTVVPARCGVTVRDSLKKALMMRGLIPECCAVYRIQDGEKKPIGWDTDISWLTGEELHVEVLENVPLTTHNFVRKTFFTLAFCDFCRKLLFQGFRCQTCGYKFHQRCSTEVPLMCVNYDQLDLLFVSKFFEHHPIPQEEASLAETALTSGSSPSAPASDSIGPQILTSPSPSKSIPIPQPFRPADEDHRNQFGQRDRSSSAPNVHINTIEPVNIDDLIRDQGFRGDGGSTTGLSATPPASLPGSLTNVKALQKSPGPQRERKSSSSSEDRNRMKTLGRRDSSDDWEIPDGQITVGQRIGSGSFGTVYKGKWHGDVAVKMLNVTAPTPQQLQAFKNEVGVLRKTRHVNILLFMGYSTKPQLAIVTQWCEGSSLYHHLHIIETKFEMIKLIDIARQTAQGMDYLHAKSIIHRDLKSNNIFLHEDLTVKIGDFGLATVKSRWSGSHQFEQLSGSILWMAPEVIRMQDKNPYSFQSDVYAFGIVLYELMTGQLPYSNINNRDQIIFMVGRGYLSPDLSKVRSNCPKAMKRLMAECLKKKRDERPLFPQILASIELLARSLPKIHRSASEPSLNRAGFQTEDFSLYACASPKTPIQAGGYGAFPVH

- pIC50: 6.18
SMILES: CN1CCN(Cc2ccc(C(=O)Nc3cccc(Nc4ccccc4-c4cc(Nc5cccc(N(C)C)c5)ncn4)c3)cc2)CC1 [Example 1, N-(3-{2-[6-(3-Dimethylamino-phenylamino)-pyrimidin-4-yl]-phenylamino}-phenyl)-4-(4-methyl-piperazin-1-ylmethyl)-benzamide]
